Source: patent US5928185A, “Iontophoresis device for the transcutaneous delivery of an active principle such as an anionic oligosaccharide” (Sanofi, priority 1995, dated 1999)

Assays:
[1] = system: factor Xa; test: Antifactor Xa activity of the pentasaccharide sodium salt; type: biochemical
[2] = Transdermic passage of sodium pentasaccharide salt by iontophoresis at set intensity through nude rat skin (Example 2); type: in vitro ADME
Procedure: The procedure as described in Example 1 was carried out, but with the following modifications:
implementation of the iontophoresis by setting a constant intensity through each cell
use of a continuous current instead of a pulsed current
the absence of buffer in the donor and back-electrode compartments in test 2d, because these compartments are equipped with electrodes of the Ag/AgCl type, which avoid hydrolysis of water.
[…], over a period of 6 hours, using a generator making it possible to set a constant intensity irrespective of the voltages generated across the terminals of each cell.

[3] = Transdermic passage of sodium pentasaccharide salt by iontophoresis at constant voltage through nude rat skin (Example 1)
[4] = test 2a: titanium, 0 mA/cm^2 (passive)

O=C(O)C1OC(OC2C(COS(=O)(=O)O)OC(OC3C(C(=O)O)OC(OC4C(COS(=O)(=O)O)OC(O)C(NS(=O)(=O)O)C4O)C(OS(=O)(=O)O)C3O)C(NS(=O)(=O)O)C2OS(=O)(=O)O)C(O)C(O)C1OC1OC(COS(=O)(=O)O)C(O)C(O)C1NS(=O)(=O)O (centres unmarked) [pentasaccharide]
antifactor Xa activity [1]: 0.65 "Golden Standard" units per microgram | Fraction of active principle used (%) ([2]; at 6 hours, test 2a: titanium, 0 mA/cm^2 (passive)): ~ zero | Fraction of active principle used (%) ([2]; at 6 hours, test 2b: graphite, 0.2 mA/cm^2): 0.09% | Fraction of active principle used (%) ([2]; at 6 hours, test 2c: titanium, 0.2 mA/cm^2): 0.49% | Fraction of active principle used (%) ([2]; at 6 hours, test 2d: Ag/AgCl, 0.2 mA/cm^2): 2.8% | Fraction of active principle used (%) ([2]; at 24 hours, test 2a: titanium, 0 mA/cm^2 (passive)): 0.09% | Fraction of active principle used (%) ([2]; at 24 hours, test 2b: graphite, 0.2 mA/cm^2): 0.9% | Fraction of active principle used (%) ([2]; at 24 hours, test 2c: titanium, 0.2 mA/cm^2): 0.75% | Fraction of active principle used (%) ([2]; at 24 hours, test 2d: Ag/AgCl, 0.2 mA/cm^2): 3.7% | Antifactor activity Xa/ml at 6 hours [2, 4]: 0.12 units per ml | Antifactor activity Xa/ml at 24 hours [2, 4]: 0.6 units per ml | total diffused quantity ([2]; test 2a: titanium, passive): 4.64 μg per cm^2 | Antifactor activity Xa/ml at 6 hours ([2]; test 2b: graphite, 0.2 mA/cm^2): 6 units per ml | total diffused quantity ([2]; test 2b: graphite, 0.2 mA/cm^2): 45 μg per cm^2 | Antifactor activity Xa/ml at 24 hours ([2]; test 2b: graphite, 0.2 mA/cm^2, 18 hours after current stopped): 5.8 units per ml | Antifactor activity Xa/ml at 6 hours ([2]; test 2c: titanium, 0.2 mA/cm^2): 3.2 units per ml | total diffused quantity ([2]; test 2c: titanium, 0.2 mA/cm^2): 38 μg per cm^2 | Antifactor activity Xa/ml at 24 hours ([2]; test 2c: titanium, 0.2 mA/cm^2, 18 hours after current stopped): 4.9 units per ml | total diffused quantity per mAh ([2]; test 2d: Ag/AgCl electrodes): 154 μg/cm^2 per mAh | total diffused quantity ([2]; test 2d: Ag/AgCl, 0.2 mA/cm^2): 185 μg per cm^2 | Antifactor activity Xa/ml at 6 hours ([2]; test 2d: Ag/AgCl, 0.2 mA/cm^2, no buffer): 18.1 units per ml | Antifactor activity Xa/ml at 24 hours ([2]; test 2d: Ag/AgCl, 0.2 mA/cm^2, 18 hours after current stopped): 24 units per ml | quantities of pentasaccharide diffused into the receiver compartment by iontophoresis ([3]; Ag/AgCl negative electrodes (reversible)): increase very greatly | Fraction of active principle used (%) ([3]; at 6 hours, test 1a: titanium, 0 V (passive)): ~ zero | Fraction of active principle used (%) ([3]; at 6 hours, test 1b: graphite, 1.1 V): 0.1% | Fraction of active principle used (%) ([3]; at 6 hours, test 1c: titanium, 1.1 V): 0.08% | Fraction of active principle used (%) ([3]; at 6 hours, test 1e: Ag/AgCl, 1.1 V, no buffer): 2.8% | Fraction of active principle used (%) ([3]; at 6 hours, test 1d: Ag/AgCl, 1.1 V, buffer): 1.4% | Fraction of active principle used (%) ([3]; at 24 hours, test 1a: titanium, 0 V (passive)): ~ zero | Fraction of active principle used (%) ([3]; at 24 hours, test 1b: graphite, 1.1 V): 0.2% | Fraction of active principle used (%) ([3]; at 24 hours, test 1c: titanium, 1.1 V): 0.15% | Fraction of active principle used (%) ([3]; at 24 hours, test 1e: Ag/AgCl, 1.1 V, no buffer): 3.3% | Fraction of active principle used (%) ([3]; at 24 hours, test 1d: Ag/AgCl, 1.1 V, buffer): 1.5% | quantities of pentasaccharide diffused into the receiver compartment by iontophoresis ([3]; irreversible electrodes such as graphite or titanium): very small and similar to the passive transport | Antifactor activity Xa/ml at 6 hours ([3]; test 1a: titanium electrodes, 0 V (passive), buffer pH about 7): < 0.1 units per ml | Antifactor activity Xa/ml at 24 hours ([3]; test 1a: titanium, 0 V (passive)): 0.25 units per ml | Antifactor activity Xa/ml at 6 hours ([3]; test 1b: graphite electrode, average 1.1 V, buffer): 0.70 units per ml | Antifactor activity Xa/ml at 24 hours ([3]; test 1b: graphite, 1.1 V, 18 hours after current stopped): 1.13 units per ml | Antifactor activity Xa/ml at 6 hours ([3]; test 1c: titanium electrode, average 1.1 V, buffer): 0.50 units per ml | Antifactor activity Xa/ml at 24 hours ([3]; test 1c: titanium, 1.1 V, 18 hours after current stopped): 0.95 units per ml | Antifactor activity Xa/ml at 6 hours ([3]; test 1e: Ag/AgCl electrode, average 1.1 V, about 0.20 mA/cm^2, no buffer): 18.1 units per ml | Antifactor activity Xa/ml at 24 hours ([3]; test 1e: Ag/AgCl, 1.1 V, no buffer, 18 hours after current stopped): 21.4 units per ml | Antifactor activity Xa/ml at 6 hours ([3]; test 1d: Ag/AgCl electrode, average 1.1 V, about 0.20 mA/cm^2, buffer): 9.1 units per ml | Antifactor activity Xa/ml at 24 hours ([3]; test 1d: Ag/AgCl, 1.1 V, buffer, 18 hours after current stopped): 9.7 units per ml
